US11098010B2 (priority 2017, dated 2021)
Where a name gives a salt, the structure may show the parent alone.

system: HBV rcDNA in HepDE19 cells; assay: HepDE19 assay with bDNA quantitation of HBV rcDNA; assay type: cell-based, hepatitis B virus (HBV); conditions: Hepatitis B virus, HepDE19, 168 h, HepDE19 cells, inhibition of rcDNA formation, 7 day incubation, top concentration 25 μM; read-out: DE-19 bDNA EC50

Structure (SMILES)	EC50 [µM]
Cn1ccnc1COC(=O)N[C@H]1CCc2c(C(=O)Nc3ccc(F)c(Cl)c3)ccc(F)c21 [Compound 137, O-(1-Methyl-1H-imidazol-2-yl)methyl, N—(S)-(4-((3-chloro-4-fluorophenyl)carbamoyl)-7-fluoro-2,3-dihydro-1H-inden-1-yl) carbamate]	0.1
O=C(N[C@H]1CCc2c(C(=O)Nc3ccc(F)c(Cl)c3)ccc(F)c21)OCCO [Compound 141, O-2-Hydroxyethyl, N—(S)-(4-((3-chloro-4-fluorophenyl)carbamoyl)-7-fluoro-2,3-dihydro-1H-inden-1-yl) carbamate]	0.18
O=C(CO)N[C@H]1CCc2c(C(=O)Nc3ccc(F)c(Cl)c3)ccc(F)c21 [Compound 143, (S)—N-(3-Chloro-4-fluorophenyl)-7-fluoro-1-(2-hydroxyacetamido)-2,3-dihydro-1H-indene-4-carboxamide]	1.5
N#Cc1cccc(COC(=O)N[C@H]2CCc3c(C(=O)Nc4ccc(F)c(Cl)c4)ccc(F)c32)n1 [Compound 150, O-(6-Cyanopyridin-2-yl)methyl, N—(S)-(4-((3-chloro-4-fluorophenyl)carbamoyl)-7-fluoro-2,3-dihydro-1H-inden-1-yl)carbamate]	0.15
O=C(N[C@H]1CCc2c(C(=O)Nc3ccc(F)c(Cl)c3)ccc(F)c21)OC1CCC(O)CC1 (stereo partly drawn) [Compound 154, O-cis-4-Hydroxycyclohexyl, N—((S)-4-((3-chloro-4-fluorophenyl)carbamoyl)-7-fluoro-2,3-dihydro-1H-inden-1-yl) carbamate]	0.35
CCC(=O)N[C@H]1CCc2c(C(=O)Nc3ccc(F)c(Cl)c3)ccc(F)c21 [Compound 158, (S)-N-(3-chloro-4-fluorophenyl)-7-fluoro-1-propionamido-2,3-dihydro-1H-indene-4-carboxamide]	0.81
O=C1C[C@H](OC(=O)N[C@H]2CCc3c(C(=O)Nc4ccc(F)c(Cl)c4)ccc(F)c32)CN1 [Compound 166, O—(S)-5-Oxopyrrolidin-3-yl, N—((S)-4-((3-chloro-4-fluorophenyl)carbamoyl)-7-fluoro-2,3-dihydro-1H-inden-1-yl) carbamate]	0.14

same assay, conditions: Hepatitis B virus, HepDE19, 168 h, read-out: DE-19 bDNA EC50 (μM), HepDE19 cells, inhibition of rcDNA formation, 7 day incubation, top concentration 25 μM

Structure (SMILES)	EC50 [µM]
O=C(N[C@H]1CCc2c(C(=O)Nc3ccc(F)c(Cl)c3)ccc(F)c21)OCc1ncccc1F [Compound 138, O-(3-Fluoropyridin-2-yl)methyl, N—(S)-(4-((3-chloro-4-fluorophenyl)carbamoyl)-7-fluoro-2,3-dihydro-1H-inden-1-yl) carbamate]	0.16
O=C(N[C@H]1CCc2c(C(=O)Nc3ccc(F)c(Cl)c3)ccc(F)c21)OC[C@H]1COCCN1 [Compound 139, O—((R)-Morpholin-3-yl)methyl, N—((S)-4-((3-chloro-4-fluorophenyl)carbamoyl)-7-fluoro-2,3-dihydro-1H-inden-1-yl) carbamate Hydrochloride]	0.62
COc1ccnc(COC(=O)N[C@H]2CCc3c(C(=O)Nc4ccc(F)c(Cl)c4)ccc(F)c32)c1 [Compound 140, O-(4-Methoxypyridin-2-yl)methyl, N—(S)-(4-((3-chloro-4-fluorophenyl)carbamoyl)-7-fluoro-2,3-dihydro-1H-inden-1-yl) carbamate]	0.22
O=C(N[C@H]1CCc2c(C(=O)Nc3ccc(F)c(Cl)c3)ccc(F)c21)OC[C@@H]1CCCO1 [Compound 142, O—((S)-Tetrahydrofuran-2-yl)methyl, N—((S)-4-((3-chloro-4-fluorophenyl)carbamoyl)-7-fluoro-2,3-dihydro-1H-inden-1-yl) carbamate]	0.27
O=C(Nc1cccnc1)N[C@H]1CCc2c(C(=O)Nc3ccc(F)c(Cl)c3)ccc(F)c21 [Compound 144, (S)—N-(3-Chloro-4-fluorophenyl)-7-fluoro-1-(3-(pyridin-3-yl)ureido)-2,3-dihydro-1H-indene-4-carboxamide]	0.85
O=C(Nc1ccncc1)N[C@H]1CCc2c(C(=O)Nc3ccc(F)c(Cl)c3)ccc(F)c21 [Compound 145, (S)—N-(3-Chloro-4-fluorophenyl)-7-fluoro-1-(3-(pyridin-4-yl)ureido)-2,3-dihydro-1H-indene-4-carboxamide]	0.93
O=C(Nc1ccc(F)c(Cl)c1)c1ccc(F)c2c1CC[C@@H]2Nc1nccs1 [Compound 146, (S)—N-(3-Chloro-4-fluorophenyl)-7-fluoro-1-(thiazol-2-ylamino)-2,3-dihydro-1H-indene-4-carboxamide]	0.24
O=C(N[C@H]1CCc2c(C(=O)Nc3ccc(F)c(Cl)c3)ccc(F)c21)OCCN1CCCCC1 [Compound 147, O-2-(Piperidin-1-yl)ethyl, N—(S)-(4-((3-chloro-4-fluorophenyl)carbamoyl)-7-fluoro-2,3-dihydro-1H-inden-1-yl) carbamate]	1.1
O=C(N[C@H]1CCc2c(C(=O)Nc3ccc(F)c(C(F)F)c3)ccc(F)c21)OCc1ccccn1 [Compound 148, O-Pyridin-2-ylmethyl, N—(S)-(4-((3-(difluoromethyl)-4-fluorophenyl)carbamoyl)-7-fluoro-2,3-dihydro-1H-inden-1-yl)carbamate Hydrochloride]	0.12
O=C(NCc1ccccn1)N[C@H]1CCc2c(C(=O)Nc3ccc(F)c(Cl)c3)ccc(F)c21 [Compound 149, (S)—N-(3-chloro-4-fluorophenyl)-7-fluoro-1-(3-(pyridin-2-ylmethyl)ureido)-2,3-dihydro-1H-indene-4-carboxamide Hydrochloride]	0.21
O=C(N[C@H]1CCc2c(C(=O)Nc3ccc(F)c(Cl)c3)ccc(F)c21)OCc1ccc2ccccc2n1 [Compound 151, O-Quinolin-2-ylmethyl, N—(S)-(4-((3-chloro-4-fluorophenyl)carbamoyl)-7-fluoro-2,3-dihydro-1H-inden-1-yl) carbamate]	0.41
Cc1cnc(COC(=O)N[C@H]2CCc3c(C(=O)Nc4ccc(F)c(Cl)c4)ccc(F)c32)cn1 [Compound 152, O-(5-Methylpyrazin-2-yl)methyl, N—(S)-(4-((3-chloro-4-fluorophenyl)carbamoyl)-7-fluoro-2,3-dihydro-1H-inden-1-yl)carbamate]	0.07
O=C(N[C@H]1CCc2c(C(=O)Nc3ccc(F)c(Cl)c3)ccc(F)c21)OCCN1CCOCC1 [Compound 153, O-2-Morpholinoethyl, N—(S)-(4-((3-chloro-4-fluorophenyl)carbamoyl)-7-fluoro-2,3-dihydro-1H-inden-1-yl) carbamate]	0.47
O=C(N[C@H]1CCc2c(C(=O)Nc3ccc(F)c(Cl)c3)ccc(F)c21)OCCCO [Compound 155, O-3-Hydroxypropyl, N—(S)-(4-((3-chloro-4-fluorophenyl)carbamoyl)-7-fluoro-2,3-dihydro-1H-inden-1-yl) carbamate]	24
CC(=O)NCCOC(=O)N[C@H]1CCc2c(C(=O)Nc3ccc(F)c(Cl)c3)ccc(F)c21 [Compound 157, O-2-Acetamidoethyl, N—(S)-(4-((3-chloro-4-fluorophenyl)carbamoyl)-7-fluoro-2,3-dihydro-1H-inden-1-yl) carbamate]	0.26
COc1ccnc(N[C@H]2CCc3c(C(=O)Nc4ccc(F)c(Cl)c4)ccc(F)c32)n1 [Compound 159, (S)—N-(3-Chloro-4-fluorophenyl)-7-fluoro-1-((4-methoxypyrimidin-2-yl)amino)-2,3-dihydro-1H-indene-4-carboxamide]	0.69
Cc1ccnc(N[C@H]2CCc3c(C(=O)Nc4ccc(F)c(Cl)c4)ccc(F)c32)n1 [Compound 160]	0.25
COc1nccc(N[C@H]2CCc3c(C(=O)Nc4ccc(F)c(Cl)c4)ccc(F)c32)n1 [Compound 161, (S)—N-(3-Chloro-4-fluorophenyl)-7-fluoro-1-((2-methoxypyrimidin-4-yl)amino)-2,3-dihydro-1H-indene-4-carboxamide]	0.27
Cc1cnc(N[C@H]2CCc3c(C(=O)Nc4ccc(F)c(Cl)c4)ccc(F)c32)nc1 [Compound 162, (S)—N-(3-Chloro-4-fluorophenyl)-7-fluoro-1-((5-methylpyrimidin-2-yl)amino)-2,3-dihydro-1H-indene-4-carboxamide]	0.15
COc1cc(N[C@H]2CCc3c(C(=O)Nc4ccc(F)c(Cl)c4)ccc(F)c32)ncn1 [Compound 163, (S)—N-(3-Chloro-4-fluorophenyl)-7-fluoro-1-((6-methoxypyrimidin-4-yl)amino)-2,3-dihydro-1H-indene-4-carboxamide]	0.07
Cc1cc(C)nc(N[C@H]2CCc3c(C(=O)Nc4ccc(F)c(Cl)c4)ccc(F)c32)n1 [Compound 164, (S)—N-(3-Chloro-4-fluorophenyl)-1-((4,6-dimethylpyrimidin-2-yl)amino)-7-fluoro-2,3-dihydro-1H-indene-4-carboxamide]	1
CNC(=O)N[C@@H]1c2cccc(C(=O)Nc3ccc(F)c(Cl)c3)c2C[C@H]1OC [Compound 165, (1R,2R)—N-(3-Chloro-4-fluorophenyl)-2-methoxy-1-(3-methylureido)-2,3-dihydro-1H-indene-4-carboxamide]	0.33
O=C(Nc1ccc(F)c(Cl)c1)c1ccc(F)c2c1CC[C@@H]2NS(=O)(=O)CCc1ccccn1 [Compound 167, (S)—N-(3-Chloro-4-fluorophenyl)-7-fluoro-1-((2-(pyridin-2-yl)ethyl)sulfonamido)-2,3-dihydro-1H-indene-4-carboxamide Hydrochloride]	0.29

same assay, conditions: read-out: DE-19 bDNA EC50; HepDE19 cells, inhibition of rcDNA formation, 7 day incubation, top concentration 25 μM

Structure (SMILES)	EC50 [µM]
CC1(C)Cc2c(C(=O)Nc3ccc(F)c(Cl)c3)ccc(F)c2C1NC(=O)OCc1ccccn1 (centres unmarked) [Compound 136, O-Pyridin-2-ylmethyl, N-(4-((3-chloro-4-fluorophenyl)carbamoyl)-7-fluoro-2,2-dimethyl-2,3-dihydro-1H-inden-1-yl) carbamate]	0.29
O=C(N[C@H]1CCc2c(C(=O)Nc3ccc(F)c(Cl)c3)ccc(F)c21)OC1CCC(O)CC1 (stereo partly drawn) [Compound 156, O-trans-4-Hydroxycyclohexyl, N—((S)-4-((3-chloro-4-fluorophenyl)carbamoyl)-7-fluoro-2,3-dihydro-1H-inden-1-yl) carbamate]	0.22
